# Assay results as given in a melting point compilation (Tetko et al.).
row,SMILES,melting point [°C]
1,O=C(NC(Cc1ccccc1)C(=O)O)OCc1ccccc1[N+](=O)[O-] (stereo unspecified),140 to 142
2,O=C(O)C1CCOCC1,87 to 89
3,O=[N+]([O-])c1cc([N+](=O)[O-])c(C(Br)C(Br)c2ccccc2)cc1/C=C\c1ccccc1 (stereo unspecified),212
4,Cn1ccnc1,-6
5,Cc1c(C)c(C)c(C(=O)O)c(C)c1C,210
6,COC(=O)C1(S(=O)(=O)c2ccccc2)CCCC1,56.5
7,CCCCCCCc1ccc(C(=O)Oc2ccc(C#N)cc2)cc1,43 to 46
8,O=C1CC2CCC1C2 (stereo unspecified),95
9,COc1ccc(C2(C(=O)O)CCCC2)cc1,151 to 156
10,CC(=O)C(=Cc1ccccc1)C(=O)OC1CC(C)CCC1C(C)C (stereo unspecified),133
11,Ic1ccc(Cc2ccccc2)cc1,38 to 40
12,N#Cc1c(Cl)c(Cl)c(Cl)c(C#N)c1Cl,252
13,O=[N+]([O-])c1ccc(NN=CC2=C(/C=C/c3ccccc3)CCCC2)c([N+](=O)[O-])c1,261 to 262
14,Cc1cccc2cc3c(ccc4ccccc43)cc12,156
15,COc1ccc(C(=O)/C=C(\C)c2ccc(OC)cc2)cc1,86 to 87
16,"CCC12CCCN3CCc4c(n(c5ccccc45)C(=O)C1)C32 (single isomer, unassigned; (-))",173 to 177
17,Cn1nnc2cc(C(=O)O)ccc21,250
18,OCc1nccn1Cc1ccccc1,94 to 97
19,Cc1ccc(C(O)c2cc(C)ccc2O)cc1 (stereo unspecified),98
20,CC(=O)OC1(C(C)=O)CCC2(C)C(CCC3C4CCCC4(C)CCC32)C1 (stereo unspecified),164 to 166
21,BrCCCOc1ccc2cc3ccc(OCCCBr)cc3nc2c1,142
22,C/C(=N\NC(N)=O)c1ccc(C)cc1,204
23,COC(=O)c1ccccc1CS(=O)(=O)NC(=O)Nc1nc(OC)cc(OC)n1,187
24,N#CC(=CNc1ccc(O)cc1)c1ccccc1,150
25,FC(F)=C(Cl)C(F)(F)F,-130
26,OC[C@@H](O)COCc1ccccc1,24 to 27

row,SMILES,melting point [°C]
1,Cc1cc(Br)c[nH]c1=O,171 to 175
2,CC1(C)Cc2cccc(C=O)c2O1,81 to 83
3,COc1ccc2ccccc2c1C,126
4,O=C(Oc1c(F)c(F)c(F)c(F)c1F)c1cncnc1,121 to 124
5,CN=NC,-78
6,O=C1C=CC(=O)C1,37
7,Cc1ccc2cc(F)ccc2c1,73 to 74
8,CSc1ncnc2c1ncn2C1OC(CO)C(O)C1O (stereo unspecified),164
9,COC(=O)[C@H](C)On1c(C)csc1=S,69.8
10,Cc1ccccc1NN=C1C(=O)CC(C)(C)CC1=O,109
11,CCc1cc(C(=O)c2ccc(OC)cc2)c(N)s1,100 to 102
12,COc1ccccc1-c1ccc(C=C2C(=O)NC(=O)NC2=O)o1,220
13,CCC(Br)(CC)C(=O)NC(N)=O,118
14,[O-][P+](c1ccccc1)(c1ccccc1)C1C2=C(OC3=C1CCc1ccccc13)c1ccccc1CC2,215
15,N#CCCNc1ccccc1,52.5
16,Oc1cccc2[nH]c3ccccc3c12,169 to 173
17,COc1cccc(CO)c1O,59 to 63
18,Nc1nc(Br)c2ccccc2c1Cc1ccccc1,155 to 156
19,CC(=O)Nc1ccc(Cl)cc1C,136 to 138
20,CN1CCN(C(=O)OC2C3=C(SCCS3)C(=O)N2c2ccc3ccc(Cl)nc3n2)CC1 (stereo unspecified),280
21,CCC1=CCCC1=NNc1ccc([N+](=O)[O-])cc1[N+](=O)[O-],220
22,Nc1nn(-c2ccccc2)c2nc3ccccc3nc12,210
23,ClC1(Cl)CCCCC1,-47
24,CCOC(=O)CC(=O)CCl,-8
25,O=C(C1=NOC2C(=O)N(c3cccc([N+](=O)[O-])c3)C(=O)C12)c1cccs1 (stereo unspecified),164
26,C=CCC1(C(C)C)C(=O)NC(=O)N(C)C1=O (stereo unspecified),56.5

row,SMILES,melting point [°C]
1,Cc1ccc([C@@H]2CC(=O)[C@@H](c3ccccc3)[C@H](c3ccc(C)cc3)N2)cc1,148
2,CCOC(=O)c1nn(-c2ccc(C)cc2)c(C)c1C(=O)c1noc(-c2ccccc2)c1S(=O)(=O)c1ccccc1,169
3,Cc1c(C(C)C2NCC(C)CC2O)ccc2c1CC1C2CC=C2CC(O)CCC21C (stereo unspecified),206
4,Nc1cc2ccccc2cc1C(=O)O,216
5,CCCCCCCOC(=O)CCCC,-46.4
6,CC(=O)N1C(=O)N(C(C)=O)C2C1N(C(C)=O)C(=O)N2C(C)=O (stereo unspecified),234 to 238
7,CCOC(=O)c1cc2cccc([N+](=O)[O-])c2[nH]1,90 to 96
8,Nc1cccc(-c2ccncc2)c1,167 to 168
9,O=C(NCCO[N+](=O)[O-])c1cccnc1,92.5
10,OCc1cc(-c2cccs2)on1,62 to 64
11,CCCNCCC,-63
12,FC(F)(F)c1ccc(N2CCOCC2)c(CCl)c1,52 to 54
13,CCCCCCCCCCCCCCCCCC(=O)OCC(COC(=O)CCCCCCCCCCCCCCCCC)OC(=O)CCCCCCCCCCCCCCCCC,55
14,O=C(Cl)c1ccc2c(c1)OCO2,80 to 81
15,Cc1cc(N)ccc1[N+](=O)[O-],135
16,COc1ccc(-c2csc(/C(C#N)=N\Nc3cc(C)ccc3C)n2)cc1,155
17,COC1(C)CC(c2ccccc2)c2c(c3ccccc3oc2=O)O1 (stereo unspecified),166
18,O=[N+]([O-])c1ccc(Br)nc1,138
19,CC1(C)C2CCC1(C)C(O)C2CCO (stereo unspecified),83
20,NCCCC(O)(P(=O)(O)O)P(=O)(O)O,234
21,CCN(CCO)CCn1c(Cc2ccccc2)nc2c1c(=O)n(C)c(=O)n2C,80
22,CC1C(=O)CCCC1=O,206
23,Cc1cc(CCl)c(CCl)cc1C,104 to 106
24,Cc1nn(C)c(Cl)c1C=O,78 to 79
25,C=C(C)C1CCC2(CO)CCC3(C)C(CCC4C5(C)CCC(O)C(C)(C)C5CCC43C)C12 (stereo unspecified),250
26,CCOC(=O)N1CCNCC1,120

row,SMILES,melting point [°C]
1,Nc1ccccc1-c1ccccc1N,81
2,Cc1cc([N+](=O)[O-])cnc1Cl,78 to 80
3,O=C1CCCC(=O)N1,156
4,Nc1cc(C(=O)O)cc([N+](=O)[O-])c1,216
5,O=C(c1ccc(F)cc1)c1cccs1,97
6,CC(C)C(CO)CCC(C)(O)C(O)C(C)C (stereo unspecified),60
7,Cc1cc(C(=O)O)n(C(C)(C)C)n1,149 to 153
8,OCCCC#CC#CCCCO,45.5 to 47
9,CCN(CC)C(=O)N1CCN(C)CC1,48
10,c1ccc2c(C3CCNCC3)c[nH]c2c1,222 to 223
11,CC(=O)c1ccc(C=O)cc1,33
12,Cc1ccc(O)c(C(O)c2ccccc2)c1 (stereo unspecified),103
13,Cc1cc(C(F)(F)F)n2nc(N)c(/N=N/c3ccc4ccccc4c3)c2n1,246
14,Cn1cc(NC(=O)OC(C)(C)C)cc1C(=O)O,138 to 143
15,O=C(NCOC(=O)c1ccc(OCNC(=O)c2ccccc2)cc1)c1ccccc1,176 to 178
16,O=C(O)[C@H]1CC[C@H](C(=O)O)CC1,312
17,Nc1cc(C(F)(F)F)ccc1N1CCCCC1,41 to 43
18,NC1CCC(c2ccccc2)CC1CO (stereo unspecified),116 to 122
19,CC(=O)Nc1cccc(C=CC(=O)c2ccccc2)c1,104
20,OC(O)C(Br)(Br)Br,53.5
21,CC12CCC(/C(=C/Nc3ccc(Cl)cc3)C1=O)C2(C)C (stereo unspecified),167 to 169
22,Cc1ccc(S(=O)(=O)c2ncsc2SCC(N)=O)cc1,204 to 206
23,C=CCn1c(S)nnc1-c1ccc2ncccc2c1,211 to 214
24,O=C(O)c1ccc(-c2csnn2)cc1,230
25,CN1CCN(c2ccc(N)cc2)CC1,92
26,NCc1ccc2nccn2c1,97 to 99

row,SMILES,melting point [°C]
1,Nc1ccc([N+](=O)[O-])cc1C(F)(F)F,92
2,C[C@]12CCC(=O)C=C1CCC[C@@H]2O,57
3,N#Cc1cccc(C[C@H](NC(=O)OCC2c3ccccc3-c3ccccc32)C(=O)O)c1,116
4,Clc1cc(Cl)c(-c2c(Cl)cc(Cl)c(Cl)c2Cl)cc1Cl,83
5,N#C/C(=N/Nc1ccc(Cl)cc1)c1nc(-c2ccc(Cl)cc2)cs1,240
6,CC(C)(O)C#CC(C)(C)O,95
7,Cc1cc(C2(c3cc(C)c(O)c(Br)c3C)OS(=O)(=O)c3ccccc32)c(C)c(Br)c1O,218
8,C=CC1(OC(C)=O)CCC2(C)C(CCC3C2CCC2(C)C3CCC23OCCO3)C1 (stereo unspecified),101 to 109
9,ClCCCCCCCCCCCCCl,29
10,c1ccc(N2CCCCC2)cc1,4.7
11,COc1ccc2ccccc2c1CO,100 to 104
12,Cn1c(S)nnc1CNC(=O)OC(C)(C)C,168 to 169
13,Cc1c(N)cccc1C(F)(F)F,39
14,Clc1ccc(N=Nc2ccccc2)cc1,88
15,Cc1cc(C(=O)CCl)c(C)n1-c1ccccc1,93 to 94
16,Cc1ccc(C(=O)C=Cc2ccc(-c3ccc([N+](=O)[O-])cc3)o2)o1,178 to 179
17,COCCCNc1nc(NCCCOC)nc(SC)n1,55
18,O=C(NCCc1ccccn1)c1cc([N+](=O)[O-])cc([N+](=O)[O-])c1,120
19,O=C(Cc1ccccc1)c1ccc(Br)cc1,111
20,S=C=Nc1ccc2c(c1)OCO2,57 to 59
21,COc1cc(C(F)(F)F)nc2ccc(C)c([N+](=O)[O-])c12,181 to 183
22,Cc1cc(C2(c3ccc(O)c(C)c3)OS(=O)(=O)c3ccccc32)ccc1O,290
